Test results reported in PMC11191602, “A novel and selective fluorescent ligand for the study of adenosine A2B receptors” (Pharmacology Research & Perspectives, 2024).
Like-named read-outs stand apart in the source and are kept apart here.

Legend:
human NLuc‐A2AR = molecular target: T1, human NLuc‐A2AR (Homo sapiens, UniProt P29274); test: NanoBRET saturation binding in HEK293G cells transiently transfected with NLuc‐A2AR; details: non‐specific defined with 1 μM SCH58261; PSB603‐BY630 at concentrations up to 500 nM
T1 construct: expressed in transfected cells; host or cells: HEK293G, transient transfection with pcDNA3.1 NLuc-A2AR (FuGENE HD)
Description: The human A2A receptor cDNA was obtained from Missouri S&T cDNA Resource Centre (www.cdna.org) in a pcDNA3.1 expression vector. An N‐terminal nanoluciferase (NLuc)‐labeled human A2AR receptor constructs (NLuc‐A2AR) was then generated in frame with the full length NLuc incorporating a rat 5‐HT3A membrane localisation signal sequence in pcDNA3.1 as described previously.[37] For transient transfections, HEK293G cells were seeded at 20000 cells/well into white walled, clear bottomed 96‐wells plates (Greiner Bio‐One, Stonehouse, UK), coated with 10 μg/mL poly‐D‐lysine, in 100 μL medium/well and incubated at 37°C and 5% CO2 for 18–24 h. […]
Saturation and competition binding assays were performed as previously described.[36] […] The resulting bioluminescence resonance energy transfer (BRET) was measured using a PHERAstar FS plate reader (BMG Labtech) at 37°C. For each well, filtered light emissions at 460 nm (80 nm bandpass) and >610 nm (longpass) for the BODIPY630/650 ligand were simultaneously measured. BRET ratios were calculated by dividing the 610 nm emission by the 460 nm emission. […] For kinetic experiments, cells were preincubated for 10 min with 1:400 dilution of furimazine prior to addition of 200 nM PSB603‐BY630 and BRET ratios determined every 0.5 min. […]

[1] = molecular target: T2, human A2BR tagged with N‐terminal nanoluciferase (NLuc‐A2BR) (Homo sapiens, UniProt P29275); test: NanoBRET saturation binding of PSB603‐BY630 in live HEK293G cells stably expressing NLuc‐A2BR; details: non‐specific binding defined with 1 μM MRS‐1706, 1 h 37°C, mean of five experiments
T2 construct: expressed in transfected cells
T2 sequence (P29275 1-332): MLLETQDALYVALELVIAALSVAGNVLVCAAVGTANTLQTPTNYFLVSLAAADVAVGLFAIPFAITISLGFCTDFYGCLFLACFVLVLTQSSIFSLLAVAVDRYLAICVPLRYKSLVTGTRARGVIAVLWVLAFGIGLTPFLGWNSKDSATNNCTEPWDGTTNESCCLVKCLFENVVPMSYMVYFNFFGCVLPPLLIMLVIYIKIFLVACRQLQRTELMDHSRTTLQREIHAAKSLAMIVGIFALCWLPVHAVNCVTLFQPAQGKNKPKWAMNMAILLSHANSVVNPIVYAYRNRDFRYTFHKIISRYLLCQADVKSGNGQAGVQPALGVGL
Description: Saturation and competition binding assays were performed as previously described.[36] Briefly, cells were seeded in 96‐well white clear‐bottomed Greiner plates pre‐treated with 10 μg/mL poly‐D‐lysine (Sigma‐Aldrich, Missouri USA) at a density of 30 000–35 000 cells per well in DMEM supplemented with 10% FBS. The following day medium was removed and cells were incubated with PSB603‐BY630 in the presence or absence of 1 μM MRS1706 (saturation binding assays) or competing ligand in the presence of 50 nM PSB603‐BY630 (competition binding assays) in HEPES buffered saline solution (HBSS; 145 mM NaCl, 5 mM KCl, 1.3 mM CaCl2, 1 mM MgSO4, 10 mM HEPES, 2 mM sodium pyruvate, 1.5 mM NaHCO3, 10 mM D‐glucose, pH 7.45) with 0.1% bovine serum albumin for 1 h at 37°C. […] The resulting bioluminescence resonance energy transfer (BRET) was measured using a PHERAstar FS plate reader (BMG Labtech) at 37°C. For each well, filtered light emissions at 460 nm (80 nm bandpass) and >610 nm (longpass) for the BODIPY630/650 ligand were simultaneously measured. BRET ratios were calculated by dividing the 610 nm emission by the 460 nm emission. […] For kinetic experiments, cells were preincubated for 10 min with 1:400 dilution of furimazine prior to addition of 200 nM PSB603‐BY630 and BRET ratios determined every 0.5 min. […]
Data were analyzed using Prism 7.4 software (GraphPad, San Diego, USA). […]

NLuc‐A2BR = molecular target: T3, NLuc‐A2BR (Homo sapiens, UniProt P29275); test: NanoBRET ligand‐binding kinetics of 200 nM PSB603‐BY630 in HEK293G cells expressing NLuc‐A2BR
T3 construct: expressed in transfected cells
T3 sequence (P29275 1-332): T2 sequence (P29275 1-332)
Description: Saturation and competition binding assays were performed as previously described.[36] Briefly, cells were seeded in 96‐well white clear‐bottomed Greiner plates pre‐treated with 10 μg/mL poly‐D‐lysine (Sigma‐Aldrich, Missouri USA) at a density of 30 000–35 000 cells per well in DMEM supplemented with 10% FBS. The following day medium was removed and cells were incubated with PSB603‐BY630 in the presence or absence of 1 μM MRS1706 (saturation binding assays) or competing ligand in the presence of 50 nM PSB603‐BY630 (competition binding assays) in HEPES buffered saline solution (HBSS; 145 mM NaCl, 5 mM KCl, 1.3 mM CaCl2, 1 mM MgSO4, 10 mM HEPES, 2 mM sodium pyruvate, 1.5 mM NaHCO3, 10 mM D‐glucose, pH 7.45) with 0.1% bovine serum albumin for 1 h at 37°C. The NanoLuc substrate, furimazine (Promega Corporation, Wisconsin, USA), was then added to each well (1:400 dilution) and the plate was incubated for 10 min in the dark at 37°C. The resulting bioluminescence resonance energy transfer (BRET) was measured using a PHERAstar FS plate reader (BMG Labtech) at 37°C. For each well, filtered light emissions at 460 nm (80 nm bandpass) and >610 nm (longpass) for the BODIPY630/650 ligand were simultaneously measured. BRET ratios were calculated by dividing the 610 nm emission by the 460 nm emission. All conditions were performed in 2–6 replicates within each plate. For kinetic experiments, cells were preincubated for 10 min with 1:400 dilution of furimazine prior to addition of 200 nM PSB603‐BY630 and BRET ratios determined every 0.5 min. At 60 min, 10 μM MRS‐1706 was added and the ligand‐binding kinetics followed for a further 60 min.
For kinetic binding experiments, the BRET ratio obtained in the absence of fluorescent ligand was determined for each time point and subtracted from the total binding to obtain baseline‐corrected values for total binding at each time point. 60 min after addition of 200 nM PSB603‐BY630, 10 μM MRS‐1706 was added and the dissociation data fitted to the following equation to obtain values for the dissociation rate constant (k off) in min^−1: Y=Yo−NS.e^−koff.t+NS where [Yo] is the binding at time 60 min (when 10 μM MRS‐1706 was added), NS is the non‐specific binding at infinite time, k off is dissociation rate constant. The residence time in min was then calculated as the reciprocal of k off.

T1 sequence (P29274 whole entry): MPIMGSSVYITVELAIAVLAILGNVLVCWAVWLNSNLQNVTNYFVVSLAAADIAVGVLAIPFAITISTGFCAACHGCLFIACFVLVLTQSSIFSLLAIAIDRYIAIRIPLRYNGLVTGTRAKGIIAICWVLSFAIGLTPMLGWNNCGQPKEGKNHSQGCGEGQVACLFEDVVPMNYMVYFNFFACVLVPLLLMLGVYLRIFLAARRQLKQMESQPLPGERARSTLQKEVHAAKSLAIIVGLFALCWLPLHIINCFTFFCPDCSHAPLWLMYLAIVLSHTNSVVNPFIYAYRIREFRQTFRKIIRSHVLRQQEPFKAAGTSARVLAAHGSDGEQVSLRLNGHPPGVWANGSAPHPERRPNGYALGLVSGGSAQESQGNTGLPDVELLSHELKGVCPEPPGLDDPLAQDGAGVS

specific binding to NLuc‐A2AR (human NLuc‐A2AR): negligible | Kd [1]: 18.3 nM | koff (NLuc‐A2BR; 200 nM PSB603‐BY630, 10 μM MRS‐1706 at 60 min, single representative experiment (Figure 5), read-out: K off in representative experiment (converted)): 0.000933 s⁻¹ | time to reach binding equilibrium (NLuc‐A2BR; 200 nM PSB603‐BY630, 37°C): ≤ 60 min | koff (NLuc‐A2BR; 200 nM PSB603‐BY630, dissociation initiated with 10 μM MRS‐1706 at 60 min, 37°C, 5 experiments, read-out: dissociation rate constant k off (mean) (converted)): 0.00108 s⁻¹ | residence time (NLuc‐A2BR; reciprocal of k off, 37°C): 15.4 min
SMILES: CCCn1c(=O)[nH]c2[nH]c(-c3ccc(S(=O)(=O)N4CCN(c5ccc(OCCNC(=O)CCCCCNC(=O)COc6ccc(/C=C/C7=[N+]8C(=Cc9ccc(-c%10cccs%10)n9[B-]8(F)F)C=C7)cc6)cc5)CC4)cc3)nc2c1=O [PSB603‐BY630]
